{"source": "patent US20040058976A1", "about": "“Ophthalmic compositions for treating ocular hypertension” (priority 2003, published 2004)", "system": "IOP in Dutch Belted Rabbits", "assay": "Intraocular pressure (IOP) measurements in conscious Dutch Belted rabbits after topical instillation", "assay_type": "in vivo, rabbit", "conditions": "for 030 min (Δmm Hg) Treated Mean change in IOP / 60 min (Δmm Hg) Treated Mean change in IOP / 120 min (Δmm Hg) Treated Mean change in IOP / 180 min (Δmm Hg) Treated Mean change in IOP / 240 min (Δmm Hg) Treated Mean change in IOP / 30 min (Δ mm Hg) Treated Mean change in IOP: change from Time 0, n = 24", "description": "Intraocular pressure measurements (IOP) were performed in conscious adult, pigmented Dutch Belted rabbits (2-4 kg). The animals were allowed free access to standard laboratory diet and tap water, and were housed on a 12 hour light/dark cycle. Seven day rest or washout periods were allowed between assessment of the effects of topically administered treatments on IOP. In order to measure IOP, rabbits were placed in commercially available restraint boxes. Rabbits were conditioned to the restraint boxes on at least two occasions for a period of time ranging up to 6 hours before their first study. On the morning of each experiment, rabbits were placed in restraint boxes for a period of one hour before the first measurement of IOP. IOP was recorded using a pneumatic tonometer (Alcon Applanation Pneumatonograph). Eyelids were gently separated manually and the fingers of the operator were held far enough from the eye to avoid any direct pressure on the eye and surrounding tissues. The membrane of the tonometer was placed on the central part of the cornea. Each measure of IOP lasted 3-5 seconds during which time the animal was completely relaxed. In general, two measures for each eye was sufficient, the first measure being frequently discarded. The tonometer tracing represents the oscillations which correspond to ocular pulsations; the average value of the oscillations corresponded to the level of IOP in mm Hg.\nThe initial measurement of control IOP was done on a number of rabbits, and 12 rabbits whose control IOP were between 17-25 mm Hg (values of IOP considered to be normal) were selected for study. In each study, the rabbits were separated into two equal subgroups of 6 rabbits each with essentially equivalent control IOPs. Each study consisted of the topical administration of active test substance to one subgroup of 6 rabbits (12 eyes) and vehicle to one subgroup of 6 rabbits (12 eyes); total number of eyes tested per study being 24. In each study, one drop (volume of 50 ul) of active test substance per vehicle was instilled by means of a Hamilton syringe into both eyes of each rabbit at time ) (To). IOPs were re-measured at 30 min, 1 hour, 2 hours, 3 hours and 4 hours after instillation. Results were expressed as mean+/−SD of changes in IOP (mm Hg) from the basal To levels measured just prior to the instillation of active test agent or vehicle. The significance of the data was determined as the difference from the To value using Dunnett's t-test, as well as use of an unpaired Student's t-test for comparisons of changes in IOP between test substance and vehicle at matched time points.\nVehicles consisted of 0.5% […] peanut oil. Formulation of test agents in peanut oil was performed as follows: peanut oil formulations were prepared by dissolving 0.5%, 0.2%, 0.1%, 0.05%, 0.025% or 0.01% (wt./wt) of the test compound in peanut oil. Sonnication was used to obtain complete dissolution of the compound.", "key": {"[1]": {"conditions": "Table 3, 0.1% in peanut oil, topical"}, "[2]": {"conditions": "Table 5, 0.1% in peanut oil, topical"}, "[3]": {"conditions": "Table 2, 0.1% in peanut oil, topical"}}, "data": [{"compound": "CC(C)(C)NC[C@H](O)COc1nsnc1N1CCOCC1", "note": "[Timolol Free Base, timolol]", "values": [{"measurement": "effect on IOP (in words)", "setting": "0.5% (free base equivalent) formulated in peanut oil", "result": "significant IOP lowering"}, {"measurement": "030 min (Δmm Hg) Treated Mean change in IOP", "setting": "0.5% in peanut oil, topical 50 ul both eyes, 30 min after instillation", "result": "−2.63", "unit": "mm Hg"}, {"measurement": "60 min (Δmm Hg) Treated Mean change in IOP", "setting": "0.5% in peanut oil, topical", "result": "−3.46", "unit": "mm Hg"}, {"measurement": "120 min (Δmm Hg) Treated Mean change in IOP", "setting": "0.5% in peanut oil, topical", "result": "−3.96", "unit": "mm Hg"}, {"measurement": "180 min (Δmm Hg) Treated Mean change in IOP", "setting": "0.5% in peanut oil, topical", "result": "−4.21", "unit": "mm Hg"}, {"measurement": "240 min (Δmm Hg) Treated Mean change in IOP", "setting": "0.5% in peanut oil, topical", "result": "−2.04", "unit": "mm Hg"}]}, {"compound": "C=C(C)[C@H]1O[C@H]2CC[C@@]3(C)[C@@](O)(CC[C@H]4[C@@H]5OC(C)(C)[C@H]6C[C@@H]7C(=C)Cc8c(Cl)cc9[nH]c(c5c9c8[C@@]76O)[C@@]43C)[C@@]23O[C@H]3[C@H]1O", "note": "[Penitrem A]", "values": [{"measurement": "effect on IOP (in words)", "setting": "0.1% formulated in peanut oil", "result": "significant IOP lowering"}, {"measurement": "30 min (Δ mm Hg) Treated Mean change in IOP", "setting": "Table 3, 0.1% in peanut oil, topical, 30 min", "result": "−1.33", "unit": "mm Hg"}, {"measurement": "60 min (Δmm Hg) Treated Mean change in IOP", "setting": "[1]", "result": "−2.08", "unit": "mm Hg"}, {"measurement": "120 min (Δmm Hg) Treated Mean change in IOP", "setting": "[1]", "result": "−3.91", "unit": "mm Hg"}, {"measurement": "180 min (Δmm Hg) Treated Mean change in IOP", "setting": "[1]", "result": "−2.96", "unit": "mm Hg"}, {"measurement": "240 min (Δmm Hg) Treated Mean change in IOP", "setting": "[1]", "result": "−2.46", "unit": "mm Hg"}]}, {"compound": "COc1ccc2c(c1)c(CC(=O)N(C(=O)NC1CCCCC1)C1CCCCC1)c(C)n2C(=O)c1ccc(Cl)cc1", "note": "[Compound 1]", "values": [{"measurement": "effect on IOP (in words)", "setting": "0.2% formulated in peanut oil", "result": "significant IOP lowering"}, {"measurement": "030 min (Δmm Hg) Treated Mean change in IOP", "setting": "0.2% in peanut oil, topical, 30 min", "result": "−2.0", "unit": "mm Hg"}, {"measurement": "60 min (Δmm Hg) Treated Mean change in IOP", "setting": "0.2% in peanut oil, topical", "result": "−2.58", "unit": "mm Hg"}, {"measurement": "120 min (Δmm Hg) Treated Mean change in IOP", "setting": "0.2% in peanut oil, topical", "result": "−2.96", "unit": "mm Hg"}, {"measurement": "180 min (Δmm Hg) Treated Mean change in IOP", "setting": "0.2% in peanut oil, topical", "result": "−2.42", "unit": "mm Hg"}, {"measurement": "240 min (Δmm Hg) Treated Mean change in IOP", "setting": "0.2% in peanut oil, topical", "result": "−1.58", "unit": "mm Hg"}]}, {"compound": "Afletrem", "values": [{"measurement": "030 min (Δmm Hg) Treated Mean change in IOP", "setting": "Table 5, 0.1% in peanut oil, topical, 30 min", "result": "−1.54", "unit": "mm Hg"}, {"measurement": "60 min (Δmm Hg) Treated Mean change in IOP", "setting": "[2]", "result": "−2.04", "unit": "mm Hg"}, {"measurement": "120 min (Δmm Hg) Treated Mean change in IOP", "setting": "[2]", "result": "−2.54", "unit": "mm Hg"}, {"measurement": "180 min (Δmm Hg) Treated Mean change in IOP", "setting": "[2]", "result": "−2.13", "unit": "mm Hg"}, {"measurement": "240 min (Δmm Hg) Treated Mean change in IOP", "setting": "[2]", "result": "−1.42", "unit": "mm Hg"}]}, {"compound": "CC(C)(O)[C@H]1O[C@H]2CC[C@@]3(C)[C@@](O)(CC[C@H]4Cc5c([nH]c6ccccc56)[C@@]43C)C2=CC1=O", "note": "[Paxilline]", "values": [{"measurement": "30 min (Δ mm Hg) Treated Mean change in IOP", "setting": "Table 2, 0.1% in peanut oil, topical, 30 min", "result": "−0.79", "unit": "mm Hg"}, {"measurement": "60 min (Δmm Hg) Treated Mean change in IOP", "setting": "[3]", "result": "−2.67", "unit": "mm Hg"}, {"measurement": "120 min (Δmm Hg) Treated Mean change in IOP", "setting": "[3]", "result": "−2.67", "unit": "mm Hg"}, {"measurement": "180 min (Δmm Hg) Treated Mean change in IOP", "setting": "[3]", "result": "−1.71", "unit": "mm Hg"}, {"measurement": "240 min (Δmm Hg) Treated Mean change in IOP", "setting": "[3]", "result": "−1.38", "unit": "mm Hg"}]}]}
